Test results taken from patent US4613613A, “γ-butyrolactone derivatives, process for preparing the same and immunomodulating compositions containing the same as active ingredients” (Mitsubishi Yuka Pharmaceutical Co., Ltd., priority 1983, dated 1986).

Key:
[1] = Acute Toxicity Test (oral, mortality by 3-days observation); settings: mouse, in vivo, ddY male mice
Method: Using ddY strain male mice of 7-8 weeks old, each group consisting of 5 mice, a suspension of the present compound in a 1% tragacanth solution was administered orally. Then, mortality was examined by 3-days observation.

adjuvant arthritis = assay: Adjuvant Arthritis Inhibiting Activity (paw volume); type: in vivo, rat (F-344 strain male rats); settings: measured after 24 days, * p < 0.05 (Ttest)
Method: F-344 strain male rats of 9 weeks old (Nippon Charles River), each group consisting of 8-10 rats, were employed for assessment of adjuvant arthritis inhibiting activity of the present compounds Arthritis was induced by subsutaneous injection of 100 μl of a 6% paraffin oil suspension of Mycobacterium butyricum into hind paw. The test compound was suspended in a 1% tragacanth solution and then administered orally everyday from the day of adjuvant injection up to the 21st day at a volume of 5 ml/kg. After 24 days from the sensitization, paw volume was measured Oral administration of solely a 1% tragacanth solution was applied for control.

living body = settings: background, known immunomodulating agents; cited from earlier work
[2] = 30 mg/Kg oral everyday to 21st day, Controls: 3.48 ± 0.11 (No. 23), 3.62 ± 0.06 (No. 40), 3.58 ± 0.20 (No. 83)
[3] = 300 mg/Kg oral everyday to 21st day, Controls: 3.48 ± 0.11 (No. 23), 3.62 ± 0.06 (No. 40)

Q: Which LD50 at 72 h [1] does the source give for Cc1ccc(C(=O)SCC2C(=O)OCC2c2ccc(Cl)cc2)cc1 (stereo not drawn) [Compound 1, β-(p-chlorophenyl)-α-(p-methylbenzoylthiomethyl)-γ-butyrolactone] here?
A: > 4000 mg/kg

Q: Which LD50 at 72 h [1] does the source give for O=C1OCC(c2ccccc2)C1CSCc1ccccc1 (stereo not shown) [Compound 84] here?
A: > 4000 mg/kg

Q: For O=C(SC[C@@H]1C(=O)OC[C@H]1c1ccc(Cl)cc1)c1ccc(F)cc1 (relative stereo) [Compound 23], which Paw volume (adjuvant arthritis; 3 mg/Kg oral everyday to 21st day, Control 3.48 ± 0.11) is on record?
A: 2.84 ± 0.25 mL

Q: And the Paw volume (adjuvant arthritis; [2])?
A: 2.78 ± 0.23 mL

Q: And the Paw volume (adjuvant arthritis; [3])?
A: 3.03 ± 0.25 mL

Q: What about the LD50 at 72 h [1] of the same compound?
A: > 4000 mg/kg

Q: With O=C([O-])c1ccccc1Nc1cc(Cl)ccc1C(=O)[O-].[Na+].[Na+] [N-(2-carboxyphenyl)-4-chloroanthranilic acid disodium salt] as the compound, how does the “toxicity to a living body (in words)” value (living body) read?
A: strong toxicity

Q: Which Paw volume (adjuvant arthritis; [2]) does the source give for COc1ccc(C2COC(=O)C2CSC2CCCCC2)cc1 (stereo not drawn) [Compound 83, α-cyclohexylthiomethyl-β-(p-methoxyphenyl)-γ-butyrolactone] here?
A: 3.00 ± 0.16 mL

Q: What does the source list for c1ccc([C@H]2CN3CCSC3=N2)cc1 [Levamisole, levamisole, reference compound]?
A: LD50 at 72 h [1]: < 1000 mg/kg; toxicity to a living body (in words) (living body): strong toxicity

Q: With CC(C)(S)[C@@H](N)C(=O)O [D-penicillamine] as the compound, how does the “toxicity to a living body (in words)” value (living body) read?
A: strong toxicity

Q: Which LD50 at 72 h [1] does the source give for O=C(SCC1C(=O)OCC1c1ccc(Cl)cc1)c1ccccc1 (stereo not drawn) [Compound 74, α-benzoylthiomethyl-β-(p-chlorophenyl)-γ-butyrolactone] here?
A: > 4000 mg/kg

Q: For Cc1ccc(C(=O)SCC2C(=O)OCC2c2ccccc2)cc1 (stereo not shown) [Compound 7], which LD50 at 72 h [1] is on record?
A: > 4000 mg/kg

Q: Which Paw volume (adjuvant arthritis; [2]) does the source give for CC(=O)SCC1C(=O)OCC1c1ccccc1 (stereo not drawn) [Compound 40, α-acetylthiomethyl-β-phenyl-γ-butyrolactone] here?
A: 3.18 ± 0.17 mL

Q: What about the Paw volume (adjuvant arthritis; [3]) of the same compound?
A: 3.18 ± 0.18 mL

Q: And the LD50 at 72 h [1]?
A: > 2000 mg/kg
